Experimental data as given in patent US9107889B2, “Compositions comprising an NO donor and a dithiolane and their use for improvement of sexual function” (Encrypta GmbH, priority 2005, dated 2015).

Key:
[1] = test system: erectile dysfunction (ED); experiment: Clinical case reports: erectile function, International Index of Erectile Function (IIEF) score; type: in vivo, human
Description: ED is clinically assessed by the application of the International Index of Erectile Function (IIEF Scale). The scale consists of 5 items related to erectile function scored from never (1 points) to always (5 points). 21-25 points translate to the absence of ED, 16-20 points relate to a mild ED, 11-15 points relate to a moderate ED and 5-10 points translate to a severe ED.
(§1) A person suffered since 3 months from worsening of erection (reduction of penile tension) and of a slight reduction of libido. Their IIEF count at the examination was 9. All biochemical parameters and hormones were within the normal range. The Doppler sonography of the penile vessels was normal. A challenge test with Silfenadil was positive, thereby excluding an organic pathology of the erectile dysfunction (ED). […] Psychogenic ED was diagnosed after examination. […] Arginine (5 g) and 600 mg α-lipoic acid were taken orally 30 minutes prior intercourse. After therapy, erection normalized. The IIEF score improved from 9 to 21 points.
A person complained since a week about insufficient erection. The person started sexual life with regularly intercourse twice a week. 3 months ago, they changed the sexual partner. At the 1st intercourse with the new partner, they experienced overexcitement. Since that time erection worsened, with an IIEF score of 8 points. The biochemical and hormonal values were within the normal range. The diagnosis was psychogenic ED and failure expectation syndrome. […] After change to 4 g arginine and 300 mg α-lipoic acid, the erection improved. The IIEF score improved from 8 to 12 points. In the meantime, the patient changed to chronic intake of 1 g arginine+100 mg α-lipoic acid daily. Occasionally, they take on demand prior intercourse additional 4 g arginine+300 mg α-lipoic acid.
(§2) A patient complained about worsening of erection since 7 years. Sexual intercourse was only possible in selected position. In addition, they suffered from premature ejaculation. Their libido remained intact. The IEFF score at diagnosis was 11. The diagnosis was physical ED and premature ejaculation. 600 mg α-lipoic acid was given as single dose and arginine was given in 4 single doses over the day of 2 g. The erection improved and the intercourse was prolonged from 1-2 minutes to 7 minutes. The IEFF score changed from 11 to 15 points. The 4 single doses have been changed to a single dose of 10 g arginine, taken together with the α-lipoic acid.
A patient (company manager with associated psychological stress) complained about reduced erection and reduced libido since the last 13 years. The morning reactions retained. […] The diagnosis was psychogenic ED and manager syndrome. […] The IIEF score improved from 9 to 24 points. For chronic intake, the daily dose of arginine has been reduced to 2 g, with no change of the α-lipoic acid intake.
(§3) A patient complained about worsening of erection and premature ejaculation. After administration of Silfenadil and Verdenafil, the erection improved; however, the premature ejaculations remained. The diagnosis was psychogenic ED and premature ejaculation. […] However, 200 mg thioctic acid together with 10 g arginine led to an improvement of the IIEF from 8 to 20 points. The duration of intercourse was extended from 1 to 4 minutes.

[2] = test system: erectile dysfunction (ED); experiment: Challenge test with Silfenadil; type: in vivo, human; details: Case 1; positive excludes organic pathology of ED
Experimental: as §1

[3] = Adverse events in the clinical cases; type: in vivo, human; details: Case 1
Experimental: as §1
None of the cases reported adverse events due to the intake of the combination partners. Attributes of cardiovascular dysfunction were not observed. Acutely, oral liquid presentations were applied, chronically both liquid and solid presentations.

premature ejaculation = experiment: Clinical case reports: duration of intercourse / premature ejaculation; type: in vivo, human; details: Case 5; Silfenadil and Verdenafil
Experimental: as §2, §3
A person was able to perform intercourse only after nasal intake of isoamylnitrite since 5 years. However, intercourse was still unsatisfactory due to unpredictable erections and premature ejaculations. The diagnosis was physical erectile dysfunction and premature ejaculation. […]

loss of libido in women = experiment: Clinical case report: female sexual function (libido, orgasm, IFSF questionnaire); type: in vivo, human; details: Case 6; arginine alone 3 g daily increased to 10 g
Description: Female sexual function can be assessed by the Index of Female Sexual Function (IFSF), a 9-item self-assessment questionnaire. The IFSF is much more comprehensive in respect of sexual function assessment compared to the IIEF. Parameters to be assessed are discomfort during intercourse, degree of vaginal dryness, number of attempts to intercourse, rate and degree of sexual desire, level of satisfaction with sex life and relationship, degree of clitoral sensation and quality of orgasm.
A person experienced loss of libido after they have born their first child. Intercourse was often painful due to diminished […]. […] Since two years, they regularly attend with their spouse marriage counseling. […] The dose was increased weekly by 100 mg. […] The ISFS questionnaire improved (10 points). They reported that their partnership has improved. Marriage counseling has been aborted.

[4] = cited from earlier work

## CCCc1nn(C)c2c(=O)[nH]c(-c3cc(S(=O)(=O)N4CCN(C)CC4)ccc3OCC)nc12 [Silfenadil]
[1]; Case 5, psychogenic ED and premature ejaculation, Silfenadil and Verdenafil
  erection after administration: improved
[2]
  challenge test result: positive
[3]
  side effect evoked by administration: severe redness of face
Premature ejaculation
  premature ejaculations after administration: remained

## N=C(N)NCCC[C@H](N)C(=O)O [arginine]
[1]; Case 2, psychogenic ED, baseline IIEF 8, oral intake of 4 g arginine alone
  change of IIEF score: did not change
[1]; Case 5, 10 g arginine on top of basic treatment (Silfenadil, Verdenafil)
  effect on ED / premature ejaculation: without any effect
Loss of libido in women
  effect on loss of libido / absent orgasm: did not improve the situation

## O=C(O)CCCCC1CCSS1 (stereo not drawn) [α-lipoic acid]
[4]
  pKa: 5.3
[1]; Case 1, psychogenic ED, baseline IIEF 9, oral intake of 600 mg α-lipoic acid alone
  change of IIEF score: did not change
[1]; Case 4, psychogenic ED, single dose 200 mg α-lipoic acid alone
  effect on erection: without any effect
[1]; Case 4, α-lipoic acid alone increased to 600 mg
  effect on erection: did improve the situation
